Laboratory results taken from patent US10105357B2, “Indication of antibiotic drugs for preparation of cancer inhibition pharmaceutical composition” (LAUNX BIOMEDICAL CO., LTD., priority 2014, dated 2018).
Where two headings read alike, the source gives them in different places.

Legend:
Format in all cases: cell-based, human
[1] = system: HeLa (Cervix Adenocarcinoma); test: Cell viability analysis, cervical cancer HeLa; conditions: Homo sapiens, HeLa, 72 h
NIH: OVCAR-3 = test: Cell viability analysis, ovarian cancer NIH: OVCAR-3; conditions: Homo sapiens, OVCAR-3, 72 h, read-out: The results of antibiotic drug inhibiting cancer cell lines (cell viability analysis), NIH-OVCAR-3
[2] = system: HepG2 (Hepatocellular Carcinoma); test: Cell viability analysis, hepatic cancer HepG2; conditions: Homo sapiens, HepG2, 72 h
[3] = system: A375 (Amelanotic Melanoma); test: Cell viability analysis, skin cancer A375; conditions: Homo sapiens, A-375, 72 h
TOV-21G = test: Cell viability analysis, ovarian cancer TOV-21G; conditions: Homo sapiens, TOV21G, 72 h, read-out: The results of antibiotic drug inhibiting cancer cell lines (cell viability analysis), TOV-21G
[4] = system: LoVo (Colorectal Adenocarcinoma); test: Cell viability analysis, colon cancer LoVo; conditions: Homo sapiens, LoVo, 72 h
BxPC-3 = test: Cell viability analysis, pancreatic cancer BxPC-3; conditions: Homo sapiens, BXPC-3, 72 h, read-out: The results of antibiotic drug inhibiting cancer cell lines (cell viability analysis), BxPC-3
[5] = system: AGS (Gastric Adenocarcinoma); test: Cell viability analysis, gastric cancer AGS; conditions: Homo sapiens, 72 h
AsPC-1 = test: Cell viability analysis, pancreatic cancer AsPC-1; conditions: Homo sapiens, ASPC1, 72 h, read-out: The results of antibiotic drug inhibiting cancer cell lines (cell viability analysis), AsPC-1
[6] = system: SAS (Tongue squamous cell carcinoma); test: Cell viability analysis, tongue cancer SAS; conditions: Homo sapiens, 72 h, read-out: The results of antibiotic drug inhibiting cancer cell lines (cell viability analysis), SAS
[7] = system: A549 (Lung Adenocarcinoma); test: Cell viability analysis, lung cancer A549; conditions: Homo sapiens, A549, 72 h
U-2OS = test: Cell viability analysis, osteosarcoma U-2OS; conditions: Homo sapiens, U2OS, 72 h, read-out: The results of antibiotic drug inhibiting cancer cell lines (cell viability analysis), U2OS
cancer cell lines = test: Cell viability analysis (WST-1) on cancer cell lines; conditions: drug 10 μM, 72 hours, WST-1; Table 3
[8] = system: Hep3B (hepatocellular carcinoma); test: Cell viability analysis, hepatic cancer Hep3B; conditions: Homo sapiens, Hep3B, 72 h, read-out: The results of antibiotic drug inhibiting cancer cell lines (cell viability analysis), Hep3B
[9] = system: HI650 (Lung Adenocarcinoma); test: Cell viability analysis, lung cancer HI650; conditions: Homo sapiens, NCI-H1650, 72 h
[10] = system: C-33A (Cervical carcinoma); test: Cell viability analysis, cervical cancer C-33A; conditions: Homo sapiens, C-33-A, 72 h, read-out: The results of antibiotic drug inhibiting cancer cell lines (cell viability analysis), C-33A
[11] = system: HL-60 (Acute Promyelocytic Leukemia); test: Cell viability analysis, leukemia HL-60; conditions: Homo sapiens, HL-60, 72 h, read-out: cell viability (survival rate), HL-60, drug 10 μM, 72 hours, WST-1, OD450 nm
T24 = test: Cell viability analysis, bladder cancer T24; conditions: Homo sapiens, T-24, 72 h, read-out: The results of antibiotic drug inhibiting cancer cell lines (cell viability analysis), T24
[12] = system: PC3 (p53−) (Prostate Adenocarcinoma); test: Cell viability analysis, prostate cancer PC3; conditions: Homo sapiens, 72 h
[13] = system: MCF7 (Mammary Gland, Adenocarcinoma); test: Cell viability analysis, breast cancer MCF7; conditions: Homo sapiens, MCF7, 72 h
[14] = system: TSGH-8301 (Urinary Bladder Carcinoma); test: Cell viability analysis, bladder cancer TSGH-8301; conditions: Homo sapiens, 72 h
[15] = system: BCC (basal cell carcinoma); test: Cell viability analysis, skin cancer BCC; conditions: Homo sapiens, 72 h, read-out: The results of antibiotic drug inhibiting cancer cell lines (cell viability analysis), BCC
[16] = system: MDA-MB-231 (Mammary Gland, Adenocarcinoma); test: Cell viability analysis, breast cancer MDA-MB-231; conditions: Homo sapiens, MDA-MB-231, 72 h, read-out: The results of antibiotic drug inhibiting cancer cell lines (cell viability analysis), MDA-MB231
[17] = system: MKN-45 (Gastric Adenocarcinoma); test: Cell viability analysis, gastric cancer MKN-45; conditions: Homo sapiens, MKN-45, 72 h
[18] = read-out: The results of antibiotic drug inhibiting cancer cell lines (cell viability analysis), HeLa, repeated experiment
[19] = read-out: cell viability (survival rate), HeLa, drug 10 μM, 72 hours, WST-1, OD450 nm
[20] = read-out: The results of antibiotic drug inhibiting cancer cell lines (cell viability analysis), HepG2, HepG2, repeated experiment
[21] = read-out: cell viability (survival rate), HepG2, drug 10 μM, 72 hours, WST-1, OD450 nm
[22] = read-out: The results of antibiotic drug inhibiting cancer cell lines (cell viability analysis), A375, A375, repeated experiment
[23] = read-out: cell viability (survival rate), A375, drug 10 μM, 72 hours, WST-1, OD450 nm
[24] = read-out: The results of antibiotic drug inhibiting cancer cell lines (cell viability analysis), LoVo, repeated experiment
[25] = read-out: cell viability (survival rate), LoVo, drug 10 μM, 72 hours, WST-1, OD450 nm
[26] = read-out: The results of antibiotic drug inhibiting cancer cell lines (cell viability analysis), AGS, repeated experiment
[27] = read-out: cell viability (survival rate), AGS, drug 10 μM, 72 hours, WST-1, OD450 nm
[28] = read-out: The results of antibiotic drug inhibiting cancer cell lines (cell viability analysis), A549, A549, repeated experiment
[29] = read-out: cell viability (survival rate), A549, drug 10 μM, 72 hours, WST-1, OD450 nm
[30] = read-out: The results of antibiotic drug inhibiting cancer cell lines (cell viability analysis), H1650, H1650, repeated experiment
[31] = read-out: cell viability (survival rate), H1650, drug 10 μM, 72 hours, WST-1, OD450 nm
[32] = read-out: The results of antibiotic drug inhibiting cancer cell lines (cell viability analysis), PC-3, PC-3, repeated experiment
[33] = read-out: cell viability (survival rate), PC3, drug 10 μM, 72 hours, WST-1, OD450 nm
[34] = read-out: The results of antibiotic drug inhibiting cancer cell lines (cell viability analysis), MCF-7, MCF-7, repeated experiment
[35] = read-out: cell viability (survival rate), MCF7, drug 10 μM, 72 hours, WST-1, OD450 nm
[36] = read-out: The results of antibiotic drug inhibiting cancer cell lines (cell viability analysis), TSGH-8301, TSGH-8301, repeated experiment
[37] = read-out: cell viability (survival rate), TSGH, drug 10 μM, 72 hours, WST-1, OD450 nm
[38] = read-out: The results of antibiotic drug inhibiting cancer cell lines (cell viability analysis), MKN-45, MKN-45, repeated experiment
[39] = read-out: cell viability (survival rate), MKN-45, drug 10 μM, 72 hours, WST-1, OD450 nm

Compound | viability at 10 µM [1, 18] [%] | viability at 10 µM [1, 19] [%] | viability at 10 µM (NIH: OVCAR-3) [%] | viability at 10 µM [2, 20] [%] | viability at 10 µM [2, 21] [%] | viability at 10 µM [3, 22] [%] | viability at 10 µM [3, 23] [%] | viability at 10 µM (TOV-21G) [%] | viability at 10 µM [4, 24] [%] | viability at 10 µM [4, 25] [%] | viability at 10 µM (BxPC-3) [%] | viability at 10 µM [5, 26] [%] | viability at 10 µM [5, 27] [%] | viability at 10 µM (AsPC-1) [%] | viability at 10 µM [6] [%] | viability at 10 µM [7, 28] [%] | viability at 10 µM [7, 29] [%] | viability at 10 µM (U-2OS) [%] | inhibition effect on different cancer cell lines (cancer cell lines) | viability at 10 µM [8] [%] | further results
CC(C)(C)C(=O)OCOP(=O)(COCCn1cnc2c(N)ncnc21)OCOC(=O)C(C)(C)C [Adefovir Dipivoxil (Preveon, Hepsera), Adefovir Dipivoxil] | 77.4 | 96.6 | 78.8 | 80.1 | 95.5 | 37.7 | 81.7 | 77.3 | 58.1 | 62 | 56.9 | 78 | 35.1 | 48.7 | 40 | 76.7 | 47.3 | 68.5 | significant inhibition effect | 71.5 | viability at 10 µM [9, 30]: 54%; viability at 10 µM [9, 31]: 55.3%; viability at 10 µM [10]: 68%; viability at 10 µM [11]: 60.4%; viability at 10 µM (T24): 44.8%; viability at 10 µM [12, 32]: 74.8%; viability at 10 µM [12, 33]: 91.3%; viability at 10 µM [13, 34]: 75.5%; viability at 10 µM [13, 35]: 56.7%; viability at 10 µM [14, 36]: 70%; viability at 10 µM [14, 37]: 47%; viability at 10 µM [15]: 38.9%; viability at 10 µM [16]: 71.9%; viability at 10 µM [17, 38]: 86.6%; viability at 10 µM [17, 39]: 46.1%
Cc1ncc([N+](=O)[O-])n1CCO [Metronidazole (Flagyl), Metronidazole] | 75.3 | 90.7 | 110 | 94.1 | 105 | 74.7 | 56.4 | 95.8 | 118 | 61.1 | 83.6 | 113 | 90.5 | 83.1 | 112 | 97.7 | 36.5 | 99.6 | significant inhibition effect | 92.3 | viability at 10 µM [9, 30]: 87.2%; viability at 10 µM [9, 31]: 94.9%; viability at 10 µM [10]: 114%; viability at 10 µM [11]: 90.8%; viability at 10 µM (T24): 93.8%; viability at 10 µM [12, 32]: 95.6%; viability at 10 µM [12, 33]: 40.9%; viability at 10 µM [13, 34]: 77.3%; viability at 10 µM [13, 35]: 43.8%; viability at 10 µM [14, 36]: 92.4%; viability at 10 µM [14, 37]: 62%; viability at 10 µM [15]: 68.2%; viability at 10 µM [16]: 93.3%; viability at 10 µM [17, 38]: 108%; viability at 10 µM [17, 39]: 57.7%
